Format in all cases: cell-based, human
The subject of one experiment is Th35-1A cells. The experiment in a line: Lymphocyte proliferation assay ([3H]-thymidine incorporation), Th35-1A cells with peptide-pulsed monocytes. To be noted: for HLA dependence of peptide recognition by Th35-1A: peptide-pulsed autologous DR7+ monocytes, anti-HLA class II antibody or control mouse Ig at 10 μg/mL (FIG. 2A). On the procedure: (§1) Lymphocyte Proliferation Assay. The lymphocyte proliferation assay was performed according to standard methods (Somasundaram, et al. (1995) J. Immunol. 155:3253-61). For screening of Th35-1A cell-reactivity with phage libraries, T helper cells (1-2×10^4/well of 96-well round-bottom microtiter plates; CORNING, Corning, N.Y.) were cultured with irradiated autologous EBV-B cells (10^4/well) pre-pulsed with 1-3×10^3 phage. To determine T helper or PBMC reactivity with peptide, adherent monocytes (5×10^4/well, obtained from PBMC) pre-pulsed with various concentrations (3.1-50 μM) of peptide were incubated with Th35-1A cells or PBMC (5×10^4/well). T helper cells or PBMC were stimulated with peptide-pulsed monocytes once or twice. All incubations were at 37° C. for 5 days in RPMI 1640/GLUTAMAX medium supplemented with 10% heat-inactivated human AB serum (Gemini Bioproducts, West Sacramento, Calif.), 10 mM HEPES and 5×10^−5 M 2-mercaptoethanol (both from SIGMA-ALDRICH). Proliferative responses of lymphocytes were determined using a standard [^3H]-thymidine incorporation assay. All determinations were performed in triplicate. Results are expressed as counts per minute (cpm) incorporated into lymphocytes. The lymphocyte proliferation inhibition assay with anti-HLA class II antibody B33.1 was performed using established methods (Somasundaram, et al. (1995) supra).

The next experiment concerns PBMC. The experiment in a line: Lymphocyte proliferation assay ([3H]-thymidine incorporation), PBMC with peptide-pulsed autologous monocytes. On the procedure: as §1
In general terms: Uptake of a labelled nucleoside into DNA is a usual measure of proliferation.

A further experiment deals with lymphocytes. The experiment in a line: IFN-γ release assay (ELISA). The method, then: IFN-γ Release Assay. Supernatants obtained 48 hours after T helper cell stimulation with phage-pulsed EBV-B cells were tested for the presence of IFN-γ using an ENDOGEN ELISA kit (Pierce Biotechnology, Inc., Rockford, Ill.).

Ends that are not written are not given here. Some results are limits rather than exact numbers.

“TGRLRGTKTVQEKEN [peptide #2, RPL8 position 243-257]”: the “Recognition by Th35-1A” value in the experiment with Th35-1A cells (after presentation by autologous monocytes (FIG. 2A)) is “recognized”. The “Presentation of peptide to Th35-1A cells by allogeneic DR7+ monocytes” value in the experiment with Th35-1A cells (allogeneic DR7+ monocytes (FIG. 2C)) is “presented”. The “Presentation of peptide to Th35-1A cells by DR7− monocytes” value with Th35-1A cells (allogeneic DR7− monocytes (FIG. 2D)) was “did not”. The “HLA dependence of peptide recognition by Th35-1A” value is “HLA class II-dependent” in the experiment with Th35-1A cells; “HLA DR7- and peptide concentration-dependent” in the experiment with Th35-1A cells (listed as RPL8 peptide #2). In addition, the “Th35-1A proliferation, dependence on peptide concentration” value in the experiment with Th35-1A cells (peptide-pulsed autologous monocytes, various concentrations (FIG. 2B)) was “peptide concentration-dependent”. For the same sequence, in the experiment with PBMC (lymphocytes from two of the three DR7+ melanoma patients (FIGS. 3A-3C), stimulated twice), the “Proliferation of autologous PBMC following peptide stimulation” value is “significantly and specifically proliferated”. Also, in the experiment on PBMC (two DR7− melanoma patients (FIGS. 3D, 3E) and four healthy donors (FIG. 3F), one peptide stimulation, listed as RPL8 peptide #2), the “Lymphoproliferative responses to peptide stimulation” value is recorded as “did not respond”. The same sequence displayed an IFN-γ produced in the experiment with lymphocytes (non-proliferating lymphocytes from two DR7− patients (FIGS. 3D, 3E) and healthy donor (FIG. 3F)) of less than 12 pg/mL. In addition, the IFN-γ produced maximally came to 124.3±1.67 pg per mL in the experiment on lymphocytes (proliferating lymphocytes from DR7+ patient of FIG. 3A) and 224.3±4.3 pg per mL with lymphocytes (proliferating lymphocytes from DR7+ patient of FIG. 3B).

For the origin of these results see patent US20100303833A1, “Method for Identifying a MHC Class H-Dependent Tumor Associated T Helper Cell Antigen” (priority 2005, published 2010).
